Source: patent US20230085307A1, “PYRIDAZINONE COMPOUND AND HERBICIDE” (NISSAN CHEMICAL CORPORATION, priority 2019, published 2023)

How the values were obtained:
southern crabgrass [1] = assay: Test Example 5: herbicidal effect by foliage application, plastic box (Table 20, symbol F); type: in vivo, southern crabgrass (Digitaria ciliaris); details: foliage application, 320 g/ha, evaluated three weeks after application
Procedure, shortened: (§1)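 Sow seeds spot-wise in sterilized diluvial soil; cover with ~1.5 cm soil. Grow 14 days in greenhouse, 25° C. to 30° C. Spray foliage with emulsion diluted to predetermined amount. Rate effect after 3 weeks.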

oval-leafed pondweed = assay: Test Example 1: herbicidal activity, application before weed generation under submerged conditions (Table 16, symbol C); type: in vivo, oval-leafed pondweed (Monochoria vaginalis); details: 320 g/ha applied herbicide
Procedure, shortened: (§2)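 Emulsion formulation, water-diluted to set dose, was put onto the flooded surface (4 cm depth, alluvial soil) the same day weeds were sown and 2.5-leaf rice transplanted. After 3 weeks at 25-30 °C under glass, each species was rated 0 (≤5% kill) to 5 (≥90% kill).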

barnyard grass [2] = assay: Test Example 5: herbicidal effect by foliage application, plastic box (Table 20, symbol H); type: in vivo, barnyard grass (Echinochloa crus-galli); details: foliage application, 320 g/ha, evaluated three weeks after application
Procedure, shortened: as §1

barnyard grass [3] = assay: Test Example 4: herbicidal effect by soil treatment (Table 19, symbol H); type: in vivo, barnyard grass (Echinochloa crus-galli); details: amount of applied herbicide 320 g/ha
Procedure, shortened: (§3)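 Soil-surface application: an emulsion agent diluted with water to the predetermined dose is sprayed uniformly over seeds lying under roughly 1.5 cm of sterilized diluvial soil. Boxes stay in a greenhouse at 25° C. to 30° C. Three weeks later, each species is graded on previously defined criteria.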

barnyard grass [4] = assay: Test Example 3: herbicidal effect by foliage application, Wagner pot (Table 18, symbol H); type: in vivo, barnyard grass (Echinochloa crus-galli); details: amount of applied herbicide 320 g/ha
Procedure, shortened: (§4)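 Plants were sown in alluvial soil held under 0.1–0.5 cm standing water and grown 14 days in a greenhouse at 25–30 °C. An emulsifiable formulation, water-diluted to the set dose, was then sprayed onto the foliage, and effects were scored three weeks later using previously defined criteria.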

velvetleaf [5] = assay: Test Example 5: herbicidal effect by foliage application, plastic box (Table 20, symbol M); type: in vivo, velvetleaf (Abutilon theophrasti); details: foliage application, 320 g/ha, evaluated three weeks after application
Procedure, shortened: as §1

Italian ryegrass [6] = assay: Test Example 5: herbicidal effect by foliage application, plastic box (Table 20, symbol K); type: in vivo, Italian ryegrass (Lolium multiflorum); details: foliage application, 320 g/ha, evaluated three weeks after application
Procedure, shortened: as §1

lambsquarters [7] = assay: Test Example 4: herbicidal effect by soil treatment (Table 19, symbol O); type: in vivo, lambsquarters (Chenopodium album); details: amount of applied herbicide 320 g/ha
Procedure, shortened: as §3

persian speedwell [8] = assay: Test Example 5: herbicidal effect by foliage application, plastic box (Table 20, symbol R); type: in vivo, Persian speedwell (Veronica persica); details: foliage application, 320 g/ha, evaluated three weeks after application
Procedure, shortened: as §1

velvetleaf [9] = assay: Test Example 4: herbicidal effect by soil treatment (Table 19, symbol M); type: in vivo, velvetleaf (Abutilon theophrasti); details: amount of applied herbicide 320 g/ha
Procedure, shortened: as §3

redroot pigweed [10] = assay: Test Example 5: herbicidal effect by foliage application, plastic box (Table 20, symbol N); type: in vivo, redroot pigweed (Amaranthus retroflexus); details: foliage application, 320 g/ha, evaluated three weeks after application
Procedure, shortened: as §1

chickweed [11] = assay: Test Example 4: herbicidal effect by soil treatment (Table 19, symbol P); type: in vivo, common chickweed (Stellaria media); details: amount of applied herbicide 320 g/ha
Procedure, shortened: as §3

rice flat sedge = assay: Test Example 3: herbicidal effect by foliage application, Wagner pot (Table 18, symbol E); type: in vivo, rice flat sedge (Cyperus iria); details: amount of applied herbicide 320 g/ha
Procedure, shortened: as §4

green foxtail [12] = assay: Test Example 5: herbicidal effect by foliage application, plastic box (Table 20, symbol G); type: in vivo, green foxtail (Setaria viridis); details: foliage application, 320 g/ha, evaluated three weeks after application
Procedure, shortened: as §1

southern crabgrass [13] = assay: Test Example 4: herbicidal effect by soil treatment (Table 19, symbol F); type: in vivo, southern crabgrass (Digitaria ciliaris); details: amount of applied herbicide 320 g/ha
Procedure, shortened: as §3

blackgrass [14] = assay: Test Example 4: herbicidal effect by soil treatment (Table 19, symbol J); type: in vivo, blackgrass (Alopecurus myosuroides); details: amount of applied herbicide 320 g/ha
Procedure, shortened: as §3

Italian ryegrass [15] = assay: Test Example 4: herbicidal effect by soil treatment (Table 19, symbol K); type: in vivo, Italian ryegrass (Lolium multiflorum); details: amount of applied herbicide 320 g/ha
Procedure, shortened: as §3

lambsquarters [16] = assay: Test Example 5: herbicidal effect by foliage application, plastic box (Table 20, symbol O); type: in vivo, lambsquarters (Chenopodium album); details: foliage application, 320 g/ha, evaluated three weeks after application
Procedure, shortened: as §1

persian speedwell [17] = assay: Test Example 4: herbicidal effect by soil treatment (Table 19, symbol R); type: in vivo, Persian speedwell (Veronica persica); details: amount of applied herbicide 320 g/ha
Procedure, shortened: as §3

windgrass [18] = assay: Test Example 4: herbicidal effect by soil treatment (Table 19, symbol L); type: in vivo, windgrass (Apera spica-venti); details: amount of applied herbicide 320 g/ha
Procedure, shortened: as §3

Chinese sprangletop = assay: Test Example 3: herbicidal effect by foliage application, Wagner pot (Table 18, symbol D); type: in vivo, chinese sprangletop (Leptochloa chinensis); details: amount of applied herbicide 320 g/ha
Procedure, shortened: as §4

Japanese bulrush = assay: Test Example 1: herbicidal activity, application before weed generation under submerged conditions (Table 16, symbol B); type: in vivo, Japanese bulrush (Schoenoplectus juncoides); details: 320 g/ha applied herbicide
Procedure, shortened: as §2

wild oat [19] = assay: Test Example 4: herbicidal effect by soil treatment (Table 19, symbol I); type: in vivo, wild oat (Avena fatua); details: amount of applied herbicide 320 g/ha
Procedure, shortened: as §3

green foxtail [20] = assay: Test Example 4: herbicidal effect by soil treatment (Table 19, symbol G); type: in vivo, green foxtail (Setaria viridis); details: amount of applied herbicide 320 g/ha
Procedure, shortened: as §3

blackgrass [21] = assay: Test Example 5: herbicidal effect by foliage application, plastic box (Table 20, symbol J); type: in vivo, blackgrass (Alopecurus myosuroides); details: foliage application, 320 g/ha, evaluated three weeks after application
Procedure, shortened: as §1

wild oat [22] = assay: Test Example 5: herbicidal effect by foliage application, plastic box (Table 20, symbol I); type: in vivo, wild oat (Avena fatua); details: foliage application, 320 g/ha, evaluated three weeks after application
Procedure, shortened: as §1

late watergrass = assay: Test Example 1: herbicidal activity, application before weed generation under submerged conditions (Table 16, symbol A); type: in vivo, late watergrass (Echinochloa oryzicola); details: 320 g/ha applied herbicide
Procedure, shortened: as §2

windgrass [23] = assay: Test Example 5: herbicidal effect by foliage application, plastic box (Table 20, symbol L); type: in vivo, windgrass (Apera spica-venti); details: foliage application, 320 g/ha, evaluated three weeks after application
Procedure, shortened: as §1

redroot pigweed [24] = assay: Test Example 4: herbicidal effect by soil treatment (Table 19, symbol N); type: in vivo, redroot pigweed (Amaranthus retroflexus); details: amount of applied herbicide 320 g/ha
Procedure, shortened: as §3

chickweed [25] = assay: Test Example 5: herbicidal effect by foliage application, plastic box (Table 20, symbol P); type: in vivo, common chickweed (Stellaria media); details: foliage application, 320 g/ha, evaluated three weeks after application
Procedure, shortened: as §1

Row | Structure (SMILES) | herbicidal effect on F: southern crabgrass (criteria 0-5) (southern crabgrass [1]) | Herbicidal effect on C: oval-leafed pondweed (grade 0-5) (oval-leafed pondweed) | herbicidal effect on H: barnyard grass (criteria 0-5) (barnyard grass [2]) | H: barnyard grass, herbicidal effect rating (barnyard grass [3]) | herbicidal effect on H: barnyard grass (barnyard grass [4]) | herbicidal effect on M: velvetleaf (criteria 0-5) (velvetleaf [5]) | herbicidal effect on K: Italian ryegrass (criteria 0-5) (Italian ryegrass [6]) | O: lambsquarters, herbicidal effect rating (lambsquarters [7]) | herbicidal effect on R: persian speedwell (criteria 0-5) (persian speedwell [8]) | M: velvetleaf, herbicidal effect rating (velvetleaf [9]) | herbicidal effect on N: redroot pigweed (criteria 0-5) (redroot pigweed [10]) | P: chickweed, herbicidal effect rating (chickweed [11]) | herbicidal effect on E: rice flat sedge (rice flat sedge) | herbicidal effect on G: green foxtail (criteria 0-5) (green foxtail [12]) | F: southern crabgrass, herbicidal effect rating (southern crabgrass [13]) | J: blackgrass, herbicidal effect rating (blackgrass [14]) | K: Italian ryegrass, herbicidal effect rating (Italian ryegrass [15]) | herbicidal effect on O: lambsquarters (criteria 0-5) (lambsquarters [16]) | R: persian speedwell, herbicidal effect rating (persian speedwell [17]) | L: windgrass, herbicidal effect rating (windgrass [18]) | further results
1 | COc1ccccc1-c1sc2ccc(C#C[Si](C)(C)C)cc2c1-c1c(O)c(C)nn(C)c1=O [2-188] | 3 (Herbicidal rate of 40% or more and less than 70%) | 0 (Herbicidal rate of 5% or less (almost no effect)) | 1 (Herbicidal rate of 5% or more and less than 20%) | 0 (Herbicidal rate of 5% or less (almost no effect)) | 4 (Herbicidal rate of 70% or more and less than 90%) | 0 (Herbicidal rate of 5% or less (almost no effect)) | 4 (Herbicidal rate of 70% or more and less than 90%) | 3 (Herbicidal rate of 40% or more and less than 70%) | 1 (Herbicidal rate of 5% or more and less than 20%) | 0 (Herbicidal rate of 5% or less (almost no effect)) | 3 (Herbicidal rate of 40% or more and less than 70%) | 0 (Herbicidal rate of 5% or less (almost no effect)) | 0 (Herbicidal rate of 5% or less (almost no effect)) | 0 (Herbicidal rate of 5% or less (almost no effect)) | 0 (Herbicidal rate of 5% or less (almost no effect)) | 0 (Herbicidal rate of 5% or less (almost no effect)) | 0 (Herbicidal rate of 5% or less (almost no effect)) | 2 (Herbicidal rate of 20% or more and less than 40%) | 0 (Herbicidal rate of 5% or less (almost no effect)) | 0 (Herbicidal rate of 5% or less (almost no effect)) | herbicidal effect on D: Chinese sprangletop (Chinese sprangletop): 3 (Herbicidal rate of 40% or more and less than 70%); Herbicidal effect on B: Japanese bulrush (grade 0-5) (Japanese bulrush): 0 (Herbicidal rate of 5% or less (almost no effect)); I: wild oat, herbicidal effect rating (wild oat [19]): 0 (Herbicidal rate of 5% or less (almost no effect)); G: green foxtail, herbicidal effect rating (green foxtail [20]): 0 (Herbicidal rate of 5% or less (almost no effect)); herbicidal effect on J: blackgrass (criteria 0-5) (blackgrass [21]): 4 (Herbicidal rate of 70% or more and less than 90%); herbicidal effect on I: wild oat (criteria 0-5) (wild oat [22]): 0 (Herbicidal rate of 5% or less (almost no effect)); Herbicidal effect on A: late watergrass (grade 0-5) (late watergrass): 4 (Herbicidal rate of 70% or more and less than 90%); herbicidal effect on L: windgrass (criteria 0-5) (windgrass [23]): 4 (Herbicidal rate of 70% or more and less than 90%); N: redroot pigweed, herbicidal effect rating (redroot pigweed [24]): 5 (Herbicidal rate of 90% or more (almost completely withered)); herbicidal effect on P: chickweed (criteria 0-5) (chickweed [25]): 5 (Herbicidal rate of 90% or more (almost completely withered))
2 | COc1ccccc1-c1sc2ccc(C#N)cc2c1-c1c(O)c(C)nn(C)c1=O [2-190] | 0 (Herbicidal rate of 5% or less (almost no effect)) | 0 (Herbicidal rate of 5% or less (almost no effect)) | 0 (Herbicidal rate of 5% or less (almost no effect)) | 0 (Herbicidal rate of 5% or less (almost no effect)) | 2 (Herbicidal rate of 20% or more and less than 40%) | 3 (Herbicidal rate of 40% or more and less than 70%) | 0 (Herbicidal rate of 5% or less (almost no effect)) | 5 (Herbicidal rate of 90% or more (almost completely withered)) | 5 (Herbicidal rate of 90% or more (almost completely withered)) | 0 (Herbicidal rate of 5% or less (almost no effect)) | 3 (Herbicidal rate of 40% or more and less than 70%) | 0 (Herbicidal rate of 5% or less (almost no effect)) | 4 (Herbicidal rate of 70% or more and less than 90%) | 0 (Herbicidal rate of 5% or less (almost no effect)) | 0 (Herbicidal rate of 5% or less (almost no effect)) | 0 (Herbicidal rate of 5% or less (almost no effect)) | 0 (Herbicidal rate of 5% or less (almost no effect)) | 2 (Herbicidal rate of 20% or more and less than 40%) | 0 (Herbicidal rate of 5% or less (almost no effect)) | 0 (Herbicidal rate of 5% or less (almost no effect)) | herbicidal effect on D: Chinese sprangletop (Chinese sprangletop): 2 (Herbicidal rate of 20% or more and less than 40%); Herbicidal effect on B: Japanese bulrush (grade 0-5) (Japanese bulrush): 0 (Herbicidal rate of 5% or less (almost no effect)); I: wild oat, herbicidal effect rating (wild oat [19]): 0 (Herbicidal rate of 5% or less (almost no effect)); G: green foxtail, herbicidal effect rating (green foxtail [20]): 0 (Herbicidal rate of 5% or less (almost no effect)); herbicidal effect on J: blackgrass (criteria 0-5) (blackgrass [21]): 0 (Herbicidal rate of 5% or less (almost no effect)); herbicidal effect on I: wild oat (criteria 0-5) (wild oat [22]): 0 (Herbicidal rate of 5% or less (almost no effect)); Herbicidal effect on A: late watergrass (grade 0-5) (late watergrass): 3 (Herbicidal rate of 40% or more and less than 70%); herbicidal effect on L: windgrass (criteria 0-5) (windgrass [23]): 0 (Herbicidal rate of 5% or less (almost no effect)); N: redroot pigweed, herbicidal effect rating (redroot pigweed [24]): 3 (Herbicidal rate of 40% or more and less than 70%); herbicidal effect on P: chickweed (criteria 0-5) (chickweed [25]): 5 (Herbicidal rate of 90% or more (almost completely withered))
